From PubChem BioAssay (NCI)
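Exposure lasted 48 hours, with cells grown in 96-well plates and compounds tested at five concentrations. TGI marks complete inhibition of growth.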

Columns and labels:
Assay in all cases: NCI-60 cell line screen, 48 h
[1] = system: 786-0 renal
[2] = system: A498 renal
[3] = system: A549 NSCLC
[4] = system: ACHN renal
[5] = system: CAKI-1 renal
[6] = system: CCRF-CEM leukemia
[7] = system: COLO 205 colon
[8] = system: DLD-1 colon
[9] = system: DU-145 prostate
[10] = system: EKVX NSCLC
[11] = system: HCC-2998 colon
[12] = system: HCT-116 colon
[13] = system: HCT-15 colon
[14] = system: HL-60(TB) leukemia
[15] = system: HOP-18 NSCLC
[16] = system: HOP-92 NSCLC
[17] = system: HT29 colon
[18] = system: IGROV1 ovarian
[19] = system: K-562 leukemia
[20] = system: KM12 colon
[21] = system: KM20L2 colon
[22] = system: LOX IMVI melanoma
[23] = system: LXFL 529 NSCLC
[24] = system: M14 melanoma
[25] = system: M19-MEL melanoma
[26] = system: MALME-3M melanoma
[27] = system: MOLT-4 leukemia
[28] = system: NCI-H226 lung
[29] = system: NCI-H23 lung
[30] = system: NCI-H460 lung
[31] = system: NCI-H522 lung
[32] = system: OVCAR-3 ovarian
[33] = system: OVCAR-4 ovarian
[34] = system: OVCAR-5 ovarian
[35] = system: OVCAR-8 ovarian
[36] = system: RPMI-8226 leukemia
[37] = system: RXF 393 renal
[38] = system: SF-268 CNS
[39] = system: SF-295 CNS
[40] = system: SF-539 CNS
[41] = system: SK-MEL-2 melanoma
[42] = system: SK-MEL-28 melanoma
[43] = system: SK-MEL-5 melanoma
[44] = system: SK-OV-3 ovarian
[45] = system: SN12C renal
[46] = system: SNB-19 CNS
[47] = system: SNB-75 CNS
[48] = system: SNB-78 CNS
[49] = system: SR leukemia
[50] = system: SW-620 colon
[51] = system: TK-10 renal
[52] = system: U251 CNS
[53] = system: UACC-257 melanoma
[54] = system: UACC-62 melanoma
[55] = system: UO-31 renal
[56] = system: XF 498 CNS
[57] = system: DMS 114 small cell lung
[58] = system: DMS 273 small cell lung
[59] = system: HOP-62 NSCLC
[60] = system: RXF-631 renal

CCOC(=O)/C(=C\c1ccc(O)c(OC)c1)C(=O)c1ccccc1
TGI [1]: 37.6 µM | TGI [2]: 39 µM | TGI [3]: 51.3 µM | TGI [4]: 36 µM | TGI [5]: > 58.7 µM | TGI [6]: 27.4 µM | TGI [7]: > 69.1 µM | TGI [8]: 38.2 µM | TGI [9]: 61.4 µM | TGI [10]: > 53.3 µM | TGI [11]: 38.1 µM | TGI [12]: 28.7 µM | TGI [13]: 24.8 µM | TGI [14]: 52.4 µM | TGI [15]: > 100 µM | TGI [16]: 70.7 µM | TGI [17]: > 66.8 µM | TGI [18]: 39 µM | TGI [19]: > 31.8 µM | TGI [20]: 34.3 µM | TGI [21]: > 56.7 µM | TGI [22]: 21.7 µM | TGI [23]: > 39.5 µM | TGI [24]: > 48 µM | TGI [25]: 79.6 µM | TGI [26]: > 49 µM | TGI [27]: > 52.2 µM | TGI [28]: > 53 µM | TGI [29]: 23.7 µM | TGI [30]: > 60.2 µM | TGI [31]: 21.9 µM | TGI [32]: 54.3 µM | TGI [33]: > 40.3 µM | TGI [34]: > 59.3 µM | TGI [35]: 18.3 µM | TGI [36]: 42.1 µM | TGI [37]: 57.8 µM | TGI [38]: 28.1 µM | TGI [39]: > 52.6 µM | TGI [40]: 28 µM | TGI [41]: 34.8 µM | TGI [42]: 27.7 µM | TGI [43]: 29.8 µM | TGI [44]: > 61.4 µM | TGI [45]: 33.5 µM | TGI [46]: > 45.8 µM | TGI [47]: 89.5 µM | TGI [48]: 8.36 µM | TGI [49]: 62.7 µM | TGI [50]: 32.4 µM | TGI [51]: > 57.5 µM | TGI [52]: 36.2 µM | TGI [53]: > 49.7 µM | TGI [54]: 28.6 µM | TGI [55]: > 51 µM | TGI [56]: > 52 µM

COC(=O)c1ccc(OCc2ccc3nc(OC)c(OC)nc3c2)cc1
TGI [1]: > 100 µM | TGI [3]: > 100 µM | TGI [4]: > 100 µM | TGI [5]: > 100 µM | TGI [6]: > 100 µM | TGI [7]: > 100 µM | TGI [8]: > 100 µM | TGI [57]: > 100 µM | TGI [58]: > 100 µM | TGI [10]: > 100 µM | TGI [11]: > 100 µM | TGI [12]: > 100 µM | TGI [13]: > 100 µM | TGI [14]: > 100 µM | TGI [15]: > 100 µM | TGI [59]: > 100 µM | TGI [17]: > 100 µM | TGI [19]: > 100 µM | TGI [20]: > 100 µM | TGI [22]: > 100 µM | TGI [24]: > 100 µM | TGI [25]: > 100 µM | TGI [26]: > 100 µM | TGI [28]: > 100 µM | TGI [29]: > 100 µM | TGI [30]: > 100 µM | TGI [31]: > 100 µM | TGI [32]: > 100 µM | TGI [33]: > 100 µM | TGI [34]: > 100 µM | TGI [35]: > 100 µM | TGI [36]: > 100 µM | TGI [38]: > 100 µM | TGI [39]: > 100 µM | TGI [40]: > 100 µM | TGI [41]: > 100 µM | TGI [42]: > 100 µM | TGI [43]: > 100 µM | TGI [45]: > 100 µM | TGI [46]: > 100 µM | TGI [47]: > 100 µM | TGI [48]: > 100 µM | TGI [49]: > 100 µM | TGI [50]: > 100 µM | TGI [51]: > 100 µM | TGI [52]: > 100 µM | TGI [53]: > 100 µM | TGI [55]: > 100 µM | TGI [56]: > 100 µM

Cc1cc(O)cc2oc(=O)c3c(O)cc(O)cc3c12
TGI [1]: > 100 µM | TGI [2]: > 100 µM | TGI [3]: 86 µM | TGI [4]: 71.1 µM | TGI [5]: 90 µM | TGI [6]: > 100 µM | TGI [7]: 66.7 µM | TGI [8]: > 100 µM | TGI [57]: 86.1 µM | TGI [58]: 58.2 µM | TGI [10]: 75.1 µM | TGI [11]: 40.8 µM | TGI [12]: 37.6 µM | TGI [13]: 45.4 µM | TGI [14]: 46.5 µM | TGI [15]: > 100 µM | TGI [59]: 50.9 µM | TGI [16]: 76.3 µM | TGI [17]: > 100 µM | TGI [18]: 74.7 µM | TGI [19]: > 100 µM | TGI [20]: > 100 µM | TGI [21]: > 100 µM | TGI [22]: 48.1 µM | TGI [23]: > 100 µM | TGI [24]: > 100 µM | TGI [25]: > 100 µM | TGI [26]: > 100 µM | TGI [27]: 31.2 µM | TGI [28]: 91.8 µM | TGI [29]: 48 µM | TGI [30]: 30.8 µM | TGI [31]: 30.4 µM | TGI [32]: 58.4 µM | TGI [33]: > 100 µM | TGI [34]: > 100 µM | TGI [35]: > 100 µM | TGI [37]: 54.5 µM | TGI [38]: 76.5 µM | TGI [39]: 63.6 µM | TGI [40]: 49.2 µM | TGI [41]: > 100 µM | TGI [42]: > 100 µM | TGI [43]: > 100 µM | TGI [44]: 45.5 µM | TGI [45]: > 100 µM | TGI [46]: 76 µM | TGI [47]: 32.2 µM | TGI [48]: > 100 µM | TGI [49]: > 100 µM | TGI [50]: 49.9 µM | TGI [51]: > 100 µM | TGI [52]: > 100 µM | TGI [53]: > 100 µM | TGI [54]: 81 µM | TGI [55]: > 100 µM | TGI [56]: 59.3 µM

C/C(CC(=O)Nc1ccc(Cl)c(Cl)c1)=N/NC(=O)C[n+]1ccccc1
TGI [1]: > 100 µM | TGI [2]: > 100 µM | TGI [3]: > 100 µM | TGI [4]: > 100 µM | TGI [5]: > 100 µM | TGI [6]: > 100 µM | TGI [7]: > 100 µM | TGI [57]: 66.1 µM | TGI [58]: > 100 µM | TGI [10]: > 100 µM | TGI [11]: > 100 µM | TGI [12]: > 100 µM | TGI [13]: > 100 µM | TGI [14]: > 100 µM | TGI [15]: > 100 µM | TGI [59]: > 100 µM | TGI [16]: > 100 µM | TGI [17]: > 100 µM | TGI [18]: > 100 µM | TGI [19]: > 100 µM | TGI [20]: > 100 µM | TGI [21]: > 100 µM | TGI [22]: 37.1 µM | TGI [23]: > 100 µM | TGI [24]: > 100 µM | TGI [25]: > 100 µM | TGI [26]: > 100 µM | TGI [27]: > 100 µM | TGI [28]: > 100 µM | TGI [29]: > 100 µM | TGI [30]: > 100 µM | TGI [31]: > 100 µM | TGI [32]: > 100 µM | TGI [33]: > 100 µM | TGI [34]: > 100 µM | TGI [35]: > 100 µM | TGI [36]: > 100 µM | TGI [37]: > 100 µM | TGI [38]: > 100 µM | TGI [39]: > 100 µM | TGI [40]: > 100 µM | TGI [41]: > 100 µM | TGI [42]: > 100 µM | TGI [43]: > 100 µM | TGI [44]: > 100 µM | TGI [45]: > 100 µM | TGI [46]: > 100 µM | TGI [48]: > 100 µM | TGI [49]: 51.2 µM | TGI [51]: > 100 µM | TGI [52]: > 100 µM | TGI [53]: > 100 µM | TGI [54]: > 100 µM | TGI [55]: > 100 µM | TGI [56]: > 100 µM

CCCCCCC(=O)OC[n+]1ccc2c(C)c3[nH]c4ccccc4c3c(C)c2c1
TGI [2]: 2.19 µM | TGI [4]: 12.4 µM | TGI [5]: 6.55 µM | TGI [14]: > 100 µM | TGI [59]: 24.7 µM | TGI [16]: 23.9 µM | TGI [18]: 30.8 µM | TGI [21]: 2.96 µM | TGI [27]: 12.7 µM | TGI [34]: 3.6 µM | TGI [36]: 1.69 µM | TGI [37]: 2.26 µM | TGI [60]: > 100 µM | TGI [38]: 2.52 µM | TGI [41]: 37.8 µM | TGI [42]: 3.1 µM | TGI [44]: 6.31 µM | TGI [49]: 8.77 µM | TGI [51]: 14.3 µM | TGI [54]: 16.4 µM | TGI [55]: 26 µM
